The source made the active and inactive calls. The rule behind the calls is not given here.
What was measured:
Procathepsin L [1] = molecular target: T1, Procathepsin L (Homo sapiens, UniProt P07711); experiment: Inhibition of human liver cathepsin-L at 10 uM using Z-FR-AMC as substrate preincubated for 5 mins followed by substrate addition measured at 15 sec interval for 5 mins in presence of 0.01% Brij35 by fluorometric method relative to control
Target sequence in this assay (P07711 114-333 limits assumed): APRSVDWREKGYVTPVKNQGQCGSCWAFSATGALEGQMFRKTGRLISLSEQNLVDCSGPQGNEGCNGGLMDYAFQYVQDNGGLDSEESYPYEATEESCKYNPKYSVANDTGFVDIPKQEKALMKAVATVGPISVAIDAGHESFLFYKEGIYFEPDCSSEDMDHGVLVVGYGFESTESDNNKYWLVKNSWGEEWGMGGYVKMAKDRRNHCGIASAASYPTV

Procathepsin L [2] = molecular target: T1, Procathepsin L; experiment: Inhibition of human liver cathepsin-L at 10 uM using Z-FR-AMC as substrate preincubated for 5 mins followed by substrate addition measured at 15 sec interval for 5 mins in presence of 0.1% Tween or 0.1% CHAPS by fluorometric method relative to control
Target sequence in this assay (P07711 114-333 limits assumed): as above

Procathepsin L [3] = molecular target: T1, Procathepsin L; experiment: Covalent/reversible inhibition of human liver cathepsin-L using Z-FR-AMC as substrate preincubated for 5 mins followed by substrate addition measured at 15 sec interval for 5 mins by Morrison's equation analysis; conditions: read-out: Ki(app)
Target sequence in this assay (P07711 whole entry): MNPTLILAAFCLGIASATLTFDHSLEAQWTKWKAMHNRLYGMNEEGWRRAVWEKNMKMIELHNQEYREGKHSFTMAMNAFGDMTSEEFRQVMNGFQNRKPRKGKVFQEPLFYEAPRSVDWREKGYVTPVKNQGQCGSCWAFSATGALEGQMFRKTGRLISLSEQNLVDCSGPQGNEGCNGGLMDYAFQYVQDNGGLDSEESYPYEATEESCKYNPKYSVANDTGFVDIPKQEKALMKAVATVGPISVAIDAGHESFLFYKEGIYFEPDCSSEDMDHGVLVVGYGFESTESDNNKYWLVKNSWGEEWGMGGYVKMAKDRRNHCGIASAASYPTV

[4] = Retention time in pH 8.6 glycine buffer after 48 hrs at 37 degC by HPLC method
Caspase-3 (Homo sapiens) = molecular target: T2, Caspase-3 (Homo sapiens) (UniProt P42574); experiment: Inhibition of recombinant human caspase-3 at 1 uM using Ac-DMQD-AMC as substrate measured at 15 sec interval over 30 mins by fluorogenic assay relative to control
T2 sequence (whole entry): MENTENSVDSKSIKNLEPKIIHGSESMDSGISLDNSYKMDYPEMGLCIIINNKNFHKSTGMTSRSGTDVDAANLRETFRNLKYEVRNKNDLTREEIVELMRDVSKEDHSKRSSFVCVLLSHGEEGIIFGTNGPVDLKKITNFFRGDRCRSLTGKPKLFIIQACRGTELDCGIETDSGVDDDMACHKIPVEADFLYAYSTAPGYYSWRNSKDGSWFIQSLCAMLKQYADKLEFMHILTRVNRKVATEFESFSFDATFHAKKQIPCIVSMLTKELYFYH

[5] = molecular target: Matrix metalloproteinase-9 (Homo sapiens) (UniProt P14780); experiment: Inhibition of recombinant human MMP9 at 1 uM using NFF2 as substrate by fluorometric method relative to control
[6] = molecular target: Matrix metalloproteinase-9 (Homo sapiens) (UniProt P14780); experiment: Inhibition of recombinant human MMP9 at 10 uM using NFF2 as substrate by fluorometric method relative to control
[7] = Aqueous solubility of the compound in water at 2.02 mg by reversed phase column chromatography; type: physicochemical
MDA-MB-231 = experiment: Anti-migratory activity against human MDA-MB-231 cells assessed as delay in wound closure at 15 uM after 42 hrs by scratch assay; type: functional, cell-based
Procathepsin L [8] = molecular target: T1, Procathepsin L; experiment: Inhibition of human liver cathepsin-L using Z-FR-AMC as substrate preincubated for 5 mins followed by substrate addition measured at 15 sec interval for 5 mins by fluorometric method
Target sequence in this assay (P07711 whole entry): as the sequence (P07711 whole entry) above

Cathepsin B [9] = molecular target: T3, Cathepsin B (Homo sapiens, UniProt P07858); experiment: Inhibition of human liver cathepsin-B at 10 uM using Z-RR-AMC as substrate preincubated for 5 mins followed by substrate addition measured for 5 mins by fluorometric method relative to control
Cathepsin B [10] = molecular target: T3, Cathepsin B; experiment: Inhibition of human liver cathepsin-B using Z-RR-AMC as substrate preincubated for 5 mins followed by substrate addition measured for 5 mins by fluorometric method
Procathepsin L [11] = molecular target: T1, Procathepsin L; experiment: Time-dependent inhibition of human liver cathepsin-L up to 20 uM using Z-FR-AMC as substrate preincubated with enzyme followed by substrate addition by fluorometric method
Target sequence in this assay (P07711 114-333 limits assumed): as the sequence (P07711 114-333 limits assumed) above

Procathepsin L [12] = molecular target: T1, Procathepsin L; experiment: Time-dependent inhibition of human liver cathepsin-L assessed as association constant up to 20 uM using 10 uM Z-FR-AMC as substrate preincubated with enzyme followed by substrate addition by fluorometric method
Target sequence in this assay (P07711 114-333 limits assumed): as above

Procathepsin L [13] = molecular target: T1, Procathepsin L; experiment: Time-dependent inhibition of human liver cathepsin-L assessed as dissociation constant up to 20 uM using 10 uM Z-FR-AMC as substrate preincubated with enzyme followed by substrate addition by fluorometric method
Target sequence in this assay (P07711 114-333 limits assumed): as above

Procathepsin L [14] = molecular target: T1, Procathepsin L; experiment: Time-dependent inhibition of human liver cathepsin-L assessed as association constant up to 20 uM using 5 uM Z-FR-AMC as substrate preincubated with enzyme followed by substrate addition by fluorometric method
Target sequence in this assay (P07711 114-333 limits assumed): as above

[15] = Solubility in water; type: physicochemical; conditions: buffer
[16] = Aqueous solubility of the compound in water at 4 g by reversed phase column chromatography; type: physicochemical
[17] = Stability in pH 8.6 glycine buffer assessed as compound hydrolysis after 48 hrs at 37 degC in absence of alkaline phosphatase by HPLC method
[18] = Stability in water assessed as compound hydrolysis at 20 uM after 1 week at 4 degC by HPLC method; type: physicochemical; conditions: buffer, 168 h
[19] = Cytotoxicity against HUVEC assessed as growth inhibition after 48 hrs by SRB assay; type: cell-based; conditions: human, HUVEC cells
[20] = Prodrug activation in pH 8.6 glycine buffer assessed as KGP94 formation after 48 hrs at 37 degC in absence of alkaline phosphatase by HPLC method
[21] = Prodrug activation in water assessed as assessed as KGP94 formation at 20 uM after 1 week at 4 degC by HPLC method

Sequence of Matrix metalloproteinase-9 (Homo sapiens) (P14780 whole entry): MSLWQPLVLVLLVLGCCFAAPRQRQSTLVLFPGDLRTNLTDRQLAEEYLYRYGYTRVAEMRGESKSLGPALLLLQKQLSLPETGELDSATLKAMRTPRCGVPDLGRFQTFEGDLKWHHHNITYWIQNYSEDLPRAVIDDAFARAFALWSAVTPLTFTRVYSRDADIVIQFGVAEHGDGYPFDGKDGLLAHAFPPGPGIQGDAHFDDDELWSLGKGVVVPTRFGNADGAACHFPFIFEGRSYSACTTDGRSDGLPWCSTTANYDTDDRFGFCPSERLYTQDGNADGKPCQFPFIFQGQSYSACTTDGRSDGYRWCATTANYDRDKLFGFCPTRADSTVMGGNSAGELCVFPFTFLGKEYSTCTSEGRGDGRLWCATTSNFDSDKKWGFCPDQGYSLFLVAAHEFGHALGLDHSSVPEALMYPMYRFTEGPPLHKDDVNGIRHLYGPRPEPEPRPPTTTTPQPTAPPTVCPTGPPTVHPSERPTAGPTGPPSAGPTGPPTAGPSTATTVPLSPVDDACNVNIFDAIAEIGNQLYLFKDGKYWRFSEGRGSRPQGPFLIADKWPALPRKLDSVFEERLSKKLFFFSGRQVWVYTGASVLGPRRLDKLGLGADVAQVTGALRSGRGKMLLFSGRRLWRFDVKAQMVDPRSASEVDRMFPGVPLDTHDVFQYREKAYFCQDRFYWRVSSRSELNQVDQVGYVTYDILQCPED

SMILES	inhibition (Procathepsin L [1])	inhibition (Procathepsin L [2])	Activity (MDA-MB-231)	IC50 (Procathepsin L [8])	inhibition (Cathepsin B [9])	IC50 (Cathepsin B [10])	other results
NC(=S)N/N=C(\c1cccc(O)c1)c1cccc(Br)c1	88 to 91%	Active	Active	–	–	–	Ki (Procathepsin L [3]): 0.0037 µM; Retention time [4]: 5.4 min; inhibition (Caspase-3 (Homo sapiens)): 4.5%; inhibition [5]: 3%; inhibition [6]: 15%; solubility [7]: < 0.67 mg/mL
NC(=S)N/N=C(\c1cc(O)cc(O)c1)c1cccc(Br)c1	23%	–	–	≥ 10 µM	> 50%	> 10 µM	–
NC(=S)N/N=C(\c1cccc(O)c1)c1cc(Br)cc(Br)c1	94%	Active	Active	0.202 µM	> 50%	> 10 µM	Ki (Procathepsin L [3]): 0.0084 µM; TDI (Procathepsin L [11]): Active; K (Procathepsin L [12]): 1.5 ×10³ /M/s; K (Procathepsin L [13]): 1 ×10⁻³ /s; K (Procathepsin L [14]): 2 ×10³ /M/s
NC(=S)N/N=C(/c1cccc(Br)c1)c1cccc(OP(=O)([O-])[O-])c1.[Na+].[Na+]	18%	< 50%	Active	> 10 µM	> 50%	–	solubility [15]: Soluble; solubility [16]: > 400 mg/mL; Drug degradation [17]: 5.6%; Stability [18]: Stable; Retention time [4]: 1.6 min; GI50 at 48 h [19]: 20.2 µM; Drug metabolism [20]: Metabolite detected; Drug metabolism [21]: Metabolite not detected
NC(=S)N/N=C(\c1cc(O)cc(O)c1)c1cc(Br)cc(Br)c1	44%	–	–	> 10 µM	> 50%	> 10 µM	–
COc1cc(OC)cc(/C(=N\NC(N)=S)c2cc(Br)cc(Br)c2)c1	52%	–	–	≥ 10 µM	> 50%	> 10 µM	–
COc1cc(OC)cc(/C(=N\NC(N)=S)c2cccc(Br)c2)c1	46%	–	–	> 10 µM	> 50%	> 10 µM	–
NC(=S)NN=C(c1cc(O)cc(Br)c1)c1cc(O)cc(Br)c1	40%	–	–	> 10 µM	> 50%	> 10 µM	–
